Test results published in patent US5364944A, “Substituted benzoylbenzene-, biphenyl- and 2-oxazole- alkanoic acid compounds” (American Home Products Corporation, priority 1993, dated 1994).
Structures can show the parent of a compound that is named as a salt.

Tests used:
[1] = tested on: 5-lipoxygenase in human whole blood; assay: Inhibition of 5-lipoxygenase in human whole blood (LTB4); format: cell-based
Experimental: The assay of this Example measures the ability of the compounds tested to inhibit 5-lipoxygenase in human whole blood.
This assay is carried out as follows:
Blood is obtained in 50-100 ml quantities from male donors. White blood cell counts and differentials are made. Two ml of blood are placed in a 15 ml polypropylene test tube. Compounds are solubilized in dimethylsulfoxide and diluted 1:10 in 10% bovine serum albumin in phosphate buffered saline, pH 7.4 resulting in a final dimethylsulfoxide concentration of 0.1% in the blood. Then, compounds are added to the blood in a shaking water bath at 37° C. for 10 minutes prior to the addition of 30 μM calcium ionophore (A23187; Sigma). After ionophore administration, whole blood samples are mixed and incubated for 20 minutes at […] in a shaking water bath. Incubation is terminated by placing samples in an ice bath and immediately adding ethylene glycol-bis-(β-aminoethyl ether)-N,N,N',N'-tetraacetic acid (10 mM). Samples are mixed and centrifuged at 1200×g for 15 minutes at 4° C. Preparation of samples for evaluation by RIA or ELISA is carried out by the following protocol. Plasma is removed from sample tubes, placed in 15 ml polypropylene test tubes containing 8 ml methanol, and then vortexed to precipitate protein. Samples are stored at -70° C. overnight. The next day, samples are centrifuged at 200×g for 15 minutes at 4° C. to pellet the precipitate. Samples are dried in a Savant speed vac concentrator, reconstituted to original volume with ice cold RIA or ELISA buffer, and stored at -70° C. until assayed. The assay for eicosanoids (LTB4, TxB2, and PGE2) is performed as described by the manufacturer of the [^3 H]-RIA kit or ELISA kit (LTB4 -Amersham, TxB2 and PGE2 - Caymen Chemical).
The total eicosanoid level in 2 ml of blood is calculated and reported as ng/10^6 neutrophils. […] Drug effects are expressed as percent change from control values.
Compounds tested in vitro are solubilized in dimethylsulfoxide and diluted 1:10 in 10% bovine serum albumin in phosphate buffer saline resulting in a final dimethylsulfoxide concentration of 0.1% in the blood.

[2] = molecular target: T1, LTD4-induced contractions of isolated guinea pig trachea (Cavia porcellus, UniProt Q2NNR5); assay: In vitro isolated guinea pig trachea assay, LTD4 antagonist activity; parameters: species or system guinea pig (male Hartley)
T1 construct: isolated guinea pig trachea; from tissue; host or cells: tracheal rings of male Hartley guinea pigs
T1 sequence (Q2NNR5 1-340): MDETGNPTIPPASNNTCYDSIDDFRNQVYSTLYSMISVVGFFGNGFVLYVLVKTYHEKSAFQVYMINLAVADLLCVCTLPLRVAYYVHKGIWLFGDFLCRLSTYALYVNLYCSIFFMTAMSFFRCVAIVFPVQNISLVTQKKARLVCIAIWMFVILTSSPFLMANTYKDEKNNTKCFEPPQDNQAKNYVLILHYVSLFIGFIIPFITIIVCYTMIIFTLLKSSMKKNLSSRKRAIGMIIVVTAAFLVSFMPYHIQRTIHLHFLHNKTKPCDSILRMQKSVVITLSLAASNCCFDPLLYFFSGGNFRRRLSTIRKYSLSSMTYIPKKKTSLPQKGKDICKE
Experimental: The LTD4 antagonist activity of the compounds of the invention is assessed in the in vitro isolated guinea pig trachea assay. This assay is carried out as follows: Male Hartley guinea pigs (350-400 g) are euthanized by a blow to the head, the neck is opened and the trachea removed. The trachea is maintained in aerated physiological salt solution, cleared of connective tissue and fat and cut into rings approximately 2 mm in width (usually containing two cartilaginous segments per ring). Two pieces of silk suture are then passed through the lumen of the tracheal ting and are tied around the cartilage, one on each side of the trachealis muscle. The tracheal ring is suspended between a glass hook and a force displacement transducer in a 10 ml organ bath for measurement of isometric tension. […] The tracheal rings are maintained at 2 g resting tension and equilibrated for 45 minutes (with frequent washing and readjustment of resting tension). The tracheal […] contracted by the addition of carbachol (3×10^-6 M), to determine tissue responsiveness and establish a reference contraction. On attainment of a stable level of contraction (approximately 30 minutes), the tissues are washed several times until baseline tension has been restored and the re-equilibrated for 30 minutes. The tissues are then incubated for 45 minutes with a test antiagonist (either 1×10^-6 M or 1×10^-5 M) or 10 μl of an appropriate solvent control (control, nontreated). One tissue in each group serves as the control. Twenty minutes prior to the construction of the LTD4 cumulative concentration-response curve, L-[…]×10^-2 M final bath concentration) is added to inhibit bioconversion of LTD4 to LTE4. Only one LTD4 concentration-response curve is constructed in each tissue. All responses to LTD4 in an individual tissue are measured as a percentage of the reference contraction of that tissue to carbachol. LTD4 antagonist activity is determined by comparison of the concentration response curves of LTD4 in the presence and absence of antagonist. Assessment of the relative rightward shift of the antagonist treated curve relative to the solvent (control) treated tissue is calculated as a concentration ratio (Eq. A) and used in subsequent calculations to derive an antagonist pKB value (Eqs. B and C). […] If a compound is found to be active and/or depress the maximal response to LTD4, then a range of concentrations of the test compound should be used generating multiple concentration ratios which would then be used to perform a Schild analysis, and determination of a pA2 value where appropriate.

[3] = reference leukotriene antagonists

Row | Kb ([2]; 1 × 10^-5 M) | Compound | % Inhibition of LTB4 ([1]; at 10 μM) | also measured
1 |  | CN(O)C(=O)Cc1ccc(-c2ccc(OCc3ccc4ccccc4n3)cc2)c(F)c1 [Example 8, N-Hydroxy-N-methyl-2-fluoro-4'-(2-quinolinylmethoxy)-[1,1'-biphenyl]-4-acetamide] |  | IC50 [1]: 0.53 µM; % Inhibition of LTB4 ([1]; at 25 μM): 94%
2 | 0.316 µM | O=C(O)CCc1nc(-c2ccc(OCc3ccc4ccccc4n3)cc2)c(-c2ccccc2)o1 [Example 5, 5-Phenyl-4-[4-(2-Quinolinylmethoxy)phenyl]-2-oxazole propanoic acid] |  | % Inhibition of LTB4 ([1]; at 25 μM): 11%
3 | > 3.98 µM | CN(O)C(=O)Cc1ccc(-c2ccc(OCc3ccccn3)cc2)c(F)c1 [Example 28, 2-Fluoro-N-hyroxy-N-methyl-4'-(2-pyridinylmethoxy)[1,1'-biphenyl]-4-acetamide] | 66% | IC50 [1]: 2.3 µM
4 |  | CC(=O)N(O)C(C)c1ccc(-c2ccc(OCc3csc(-c4ccccc4)n3)cc2)cc1 (stereo not shown) [Example 39, N-{1-[4'-(2-Phenylthiazol-4-ylmethoxy)-biphenyl-4-yl]-ethyl}-N-hydroxy-acetamide] | 43% | 
5 |  | CC(=O)N(O)C(C)c1ccc(-c2ccc(OCc3nc4ccccc4o3)cc2)cc1 (stereo not shown) [Example 36, N-{1-[4'-(Benzoxazol-2-ylmethoxy)-biphenyl-4-yl]ethyl}-N-hydroxy-acetamide] | 77% | 
6 |  | CN(O)C(=O)Cc1ccc(-c2ccc(OCc3csc(-c4ccccc4)n3)cc2)c(F)c1 [Example 27] |  | IC50 [1]: 1.3 µM; % Inhibition of LTB4 ([1]; at 25 μM): 69%
7 |  | CC(c1ccc(-c2ccc(OCc3nc4ccccc4s3)cc2)c(F)c1)N(O)C(N)=O (stereo not shown) [Example 40, 1-{1-[4'-(Benzothiazol-2-ylmethoxy)-2-fluoro(1,1'-biphenyl)-4-yl]ethyl}-1-hydroxy-urea] | 47% | 
8 | 0.631 µM | CN(O)C(=O)Cc1ccc(-c2ccc(OCc3nc4ccccc4n3C)cc2)c(F)c1 [Example 29, 2-[2-Fluoro-4'-(1-methyl-1H-benzimidazol-2-ylmethoxy)biphenyl-4-yl]-N-hydroxy-N-methyl-4-acetamide] | 74% | IC50 [1]: 0.7 µM
9 |  | CC(c1ccc(-c2ccc(OCc3csc(-c4ccccc4)n3)cc2)cc1)N(O)C(N)=O (stereo not shown) [Example 38, 1-{1-[4'-(2-Phenylthiazol-4-ylmethoxy)-biphenyl4-yl]-ethyl}-1-hydroxy-urea] | 46% | 
10 | > 7.94 µM | O=C(Cc1ccc(-c2ccc(OCc3nc4ccccc4s3)cc2)cc1)NO [Example 14, N-Hydroxy-4'-(2-benzothiazolylmethoxy)[1,1'-biphenyl]-4-acetamide] |  | % Inhibition of LTB4 ([1]; at 25 μM): 5%
11 | > 10 µM | CC(=O)N(O)C(C)c1ccc(-c2ccc(OCc3nc4ccccc4s3)cc2)cc1 (stereo not shown) [Example 34, N-{1-[4'-(Benzothiazol-2-ylmethoxy)-biphenyl4-yl]-ethyl}-N-hydroxy-acetamide] | 36% | 
12 | > 3.16 µM | CC(=O)N(O)C(C)c1ccc(-c2ccc(OCc3nc4ccccc4n3C)cc2)cc1 (stereo not shown) [Example 37] | 61% | 
13 |  | CN(O)C(=O)Cc1ccc(-c2ccc(OCc3csc(-c4ccccc4)n3)cc2)cc1 [Example 19, N-Hydroxy-N-methyl-4'-[(2-phenylthiazol-4-yl)methoxy][1,1'-biphenyl]-4-acetamide, sodium salt, sesquihydrate] |  | % Inhibition of LTB4 ([1]; at 25 μM, sodium salt, sesquihydrate): 83%
14 |  | CCCc1c(OCCCCc2nnn[nH]2)ccc(C(C)=O)c1O [Ly-171,883, reference compound] |  | Kb [2, 3]: 0.0363 µM
15 |  | O=S(=O)(Nc1cccc(OCc2ccc3ccccc3n2)c1)C(F)(F)F [Wy-48,252, reference compound] |  | Kb [2, 3]: 0.126 µM
16 | > 5.01 µM | CC(c1ccc(-c2ccc(OCc3nc4ccccc4o3)cc2)cc1)N(O)C(N)=O (stereo not shown) [Example 35] | 51% | 
17 | > 7.94 µM | CN(O)C(=O)C(Cc1csc(-c2ccccc2)n1)c1ccc(-c2ccc(OCc3csc(-c4ccccc4)n3)cc2)cc1 (stereo not shown) [Example 25] |  | 
